The text below walks through data of ChEMBL document CHEMBL1134813, “Inhibition of HIV-1 infection by synthetic peptide analogues derived from the NH(2)-Terminal extracellular region of GPR1” (Bioorg Med Chem Lett, 2001).

The subject of assay [1] is C8166. The assay is described as follows: Anti HIV-1 activity was evaluated through C8166/GUN1WT syncytium formation assay at a concentration of 200 ug/mL. Format: functional, Homo sapiens.
In assay [2] the test system is C8166. Kind of assay: Anti HIV-1 activity was evaluated through C8166/GUN1WT syncytium formation assay at a concentration of 50 ug/mL. Format: functional, Homo sapiens.
Assay [3] in a line: Anti HIV-1 activity measured in terms of cytotoxicity against NP-2/CD4/GPR1 cells infected with HIV-1 (GUN1V). The assay is classed as functional, cell-based, Homo sapiens.
Assay [4] deals with C8166. The assay is described as follows: Anti HIV-1 activity was evaluated through C8166/GUN1WT syncytium formation assay at a concentration of 1000 ug/mL. Format: functional, Homo sapiens.
The nature of assay [5]: Anti HIV-1 activity measured in terms of cytotoxicity against NP-2/CD4/CCR5 cells infected with HIV-1(GUN1WT). Format: functional, cell-based, Homo sapiens.
A short description of assay [6]: Anti HIV-1 activity measured in terms of cytotoxicity against NP-2/CD4/CXCR4 cells infected with HIV-1 (IIIBstrain). The assay is classed as functional, cell-based, Homo sapiens.
Assay [7] is described as follows: Anti HIV-1 activity measured in terms of cytotoxicity against NP-2/CD4/CXCR4 cells infected with HIV-1(GUN1WT). The assay is classed as functional, cell-based, Homo sapiens.
Assay [8] relates to C8166. Kind of assay: Anti HIV-1 activity was evaluated through C8166/GUN1WT syncytium formation assay at a concentration of 0 ug/mL. The assay is classed as functional, Homo sapiens.

Where a SMILES comes first, the peptide text is derived from it. [ ]: non-standard residue; d: D form. The star is where a group is joined. sY = N[C@@H](Cc1ccc(OS(=O)(=O)O)cc1)C(=O)O; X1 = O=S(=O)(O)O*

Take `CC(C)C[C@H](NC(=O)[C@H](CC(=O)OS(=O)(=O)[O-])NC(=O)[C@H](Cc1ccc(OS(=O)(=O)[O-])cc1)NC(=O)[C@H](COS(=O)(=O)[O-])NC(=O)[C@@H](N)Cc1ccc(OS(=O)(=O)[O-])cc1)C(=O)N[C@@H](CC(=O)OS(=O)(=O)[O-])C(=O)N[C@@H](Cc1ccc(OS(=O)(=O)[O-])cc1)C(=O)N[C@@H](Cc1ccc(OS(=O)(=O)[O-])cc1)C(=O)O.[Na+].[Na+].[Na+].[Na+].[Na+].[Na+].[Na+]`: the Activity was determined as 210 in the assay on C8166 [1], 235 with C8166 [2] and 191 in the assay with C8166 [4]. In assay [3], the half-inhibitory concentration (IC50) (commonly the midpoint of a concentration-inhibition curve) was found to be 660 µM.
For the molecule `CCN(CC)CC.CCN(CC)CC.CCN(CC)CC.CCN(CC)CC.CCN(CC)CC.CCN(CC)CC.CCN(CC)CC.CCN(CC)CC.COC(=O)C(=O)N1CCC[C@H]1C(=O)N[C@H](Cc1ccccc1)C(=O)Nc1ccccc1OCC(=O)N[C@@H](Cc1ccc(OS(=O)(=O)O)cc1)C(=O)N[C@@H](COS(=O)(=O)O)C(=O)N[C@@H](Cc1ccc(OS(=O)(=O)O)cc1)C(=O)N[C@@H](CC(=O)OS(=O)(=O)O)C(=O)N[C@@H](CC(C)C)C(=O)N[C@@H](CC(=O)OS(=O)(=O)O)C(=O)N[C@@H](Cc1ccc(OS(=O)(=O)O)cc1)C(=O)N[C@@H](Cc1ccc(OS(=O)(=O)O)cc1)C(=O)O`, the Activity in the assay on C8166 [1] was 66; in the assay with C8166 [2], 219; in the assay on C8166 [4], 1. For the same molecule, the half-inhibitory concentration (IC50) in assay [5] (Homo sapiens, CCR5) was 42 µM; in assay [6] (Homo sapiens), 10 µM; in assay [7] (Homo sapiens) it was 10 µM; in assay [3] (Homo sapiens), 4.1 µM.
`CC(C)C[C@H](NC(=O)[C@H](CC(=O)OS(=O)(=O)O)NC(=O)[C@H](Cc1ccc(OS(=O)(=O)O)cc1)NC(=O)[C@H](COS(=O)(=O)O)NC(=O)[C@@H](N)Cc1ccc(OS(=O)(=O)O)cc1)C(=O)N[C@@H](CC(=O)OS(=O)(=O)O)C(=O)N[C@@H](Cc1ccc(OS(=O)(=O)O)cc1)C(=O)N[C@@H](Cc1ccc(OS(=O)(=O)O)cc1)C(=O)O.CCN(CC)CC.CCN(CC)CC.CCN(CC)CC.CCN(CC)CC.CCN(CC)CC.CCN(CC)CC.CCN(CC)CC`: the figures for the Activity in the assay on C8166 [1], in the assay with C8166 [2] and in the assay on C8166 [4] were 52, 258 and 4, respectively. Besides, the IC50 was determined as 42 µM in assay [5] (np-2/cd4/ccr5), 18 µM in assay [6], 10 µM in assay [7] and 4.5 µM in assay [3].
On to `CC(C)C[C@H](NC(=O)[C@H](CC(=O)OS(=O)(=O)O)NC(=O)[C@H](Cc1ccc(OS(=O)(=O)O)cc1)NC(=O)[C@H](COS(=O)(=O)O)NC(=O)[C@@H](N)Cc1ccc(OS(=O)(=O)O)cc1)C(=O)N[C@@H](CC(=O)OS(=O)(=O)O)C(=O)N[C@@H](Cc1ccc(OS(=O)(=O)O)cc1)C(=O)N[C@@H](Cc1ccc(OS(=O)(=O)O)cc1)C(=O)O`, for which the Activity in the assay on C8166 [1] was determined as 165; in the assay on C8166 [2], 231; in the assay with C8166 [4], 124. The IC50 in assay [5] (np-2/cd4/ccr5), in assay [6], in assay [7] and in assay [3] was above 1000 µM in each case.
As for `CCN(CC)CC.CCN(CC)CC.CCN(CC)CC.CCN(CC)CC.CCN(CC)CC.COC(=O)C(=O)N1CCC[C@H]1C(=O)N[C@H](Cc1ccccc1)C(=O)Nc1ccccc1OCC(=O)N[C@@H](Cc1ccc(OS(=O)(=O)O)cc1)C(=O)N[C@@H](CC(=O)OS(=O)(=O)O)C(=O)N[C@@H](CC(C)C)C(=O)N[C@@H](CC(=O)OS(=O)(=O)O)C(=O)N[C@@H](Cc1ccc(OS(=O)(=O)O)cc1)C(=O)N[C@@H](Cc1ccc(OS(=O)(=O)O)cc1)C(=O)O`, the values for the Activity in the assay on C8166 [1], in the assay on C8166 [2] and with C8166 [4] were 88, 182 and 12, respectively. The half-maximal inhibitory concentration (IC50) was found to be 60 µM in assay [5] (Homo sapiens, CCR5); 55 µM in assay [6] (Homo sapiens); 80 µM in assay [7] (Homo sapiens); 35 µM in assay [3] (Homo sapiens).
On to `COC(=O)C(=O)N1CCC[C@H]1C(=O)N[C@H](Cc1ccccc1)C(=O)Nc1ccccc1OCC(=O)N[C@@H](Cc1ccc(O)cc1)C(=O)N[C@@H](CC(=O)O)C(=O)N[C@@H](CC(C)C)C(=O)N[C@@H](CC(=O)O)C(=O)N[C@@H](Cc1ccc(O)cc1)C(=O)N[C@@H](Cc1ccc(O)cc1)C(=O)O`, for which the Activity was 192 in the assay on C8166 [8], 100 with C8166 [1], 155 in the assay with C8166 [2] and 55 in the assay on C8166 [4]. The half-inhibitory concentration (IC50) in assay [5] (Homo sapiens, CCR5) amounted to 120 µM; in assay [6] (Homo sapiens) it was 150 µM; in assay [7] (Homo sapiens), 100 µM; in assay [3] (Homo sapiens), 100 µM.
As for `COC(=O)C(=O)N1CCC[C@H]1C(=O)N[C@H](Cc1ccccc1)C(=O)Nc1ccccc1OCC(=O)N[C@@H](Cc1ccc(O)cc1)C(=O)N[C@@H](CO)C(=O)N[C@@H](Cc1ccc(O)cc1)C(=O)N[C@@H](CC(=O)O)C(=O)N[C@@H](CC(C)C)C(=O)N[C@@H](CC(=O)O)C(=O)N[C@@H](Cc1ccc(O)cc1)C(=O)N[C@@H](Cc1ccc(O)cc1)C(=O)O`, the Activity turned out to be 222 in the assay with C8166 [1], 215 in the assay with C8166 [2] and 121 in the assay on C8166 [4]. The IC50 in assay [5] (Homo sapiens, CCR5) is above 1000 µM; in assay [6] (Homo sapiens) it was above 1000 µM; in assay [7] (Homo sapiens), above 1000 µM; in assay [3] (Homo sapiens) it was 660 µM.
Take `CC(C)C[C@H](NC(=O)[C@H](CC(=O)O)NC(=O)[C@@H](N)Cc1ccc(O)cc1)C(=O)N[C@@H](CC(=O)O)C(=O)N[C@@H](Cc1ccc(O)cc1)C(=O)N[C@@H](Cc1ccc(O)cc1)C(=O)O` (H-YDLDYY-OH): the Activity amounted to 62 in the assay with C8166 [1], 188 in the assay with C8166 [2] and 4 in the assay on C8166 [4]. The half-inhibitory concentration (IC50) is 66 µM in assay [5] (Homo sapiens, CCR5); 350 µM in assay [6] (Homo sapiens); 180 µM in assay [7] (Homo sapiens); 42 µM in assay [3] (Homo sapiens).
In the case of `CC(C)C[C@H](NC(=O)[C@H](CC(=O)O)NC(=O)[C@H](Cc1ccc(O)cc1)NC(=O)[C@H](CO)NC(=O)[C@@H](N)Cc1ccc(O)cc1)C(=O)N[C@@H](CC(=O)O)C(=O)N[C@@H](Cc1ccc(O)cc1)C(=O)N[C@@H](Cc1ccc(O)cc1)C(=O)O` (H-YSYDLDYY-OH), the Activity is 252 with C8166 [1], 228 with C8166 [2] and 133 with C8166 [4]. The IC50 in assay [5] (Homo sapiens, CCR5) is above 1000 µM; in assay [6] (Homo sapiens), above 1000 µM; in assay [7] (Homo sapiens), above 1000 µM; in assay [3] (Homo sapiens) it was 660 µM.
As to `CC(C)C[C@H](NC(=O)[C@H](CC(=O)OS(=O)(=O)O)NC(=O)[C@@H](N)Cc1ccc(OS(=O)(=O)O)cc1)C(=O)N[C@@H](CC(=O)OS(=O)(=O)O)C(=O)N[C@@H](Cc1ccc(OS(=O)(=O)O)cc1)C(=O)N[C@@H](Cc1ccc(OS(=O)(=O)O)cc1)C(=O)O.CCN(CC)CC.CCN(CC)CC.CCN(CC)CC.CCN(CC)CC.CCN(CC)CC` (H-[sY]D(X1)LD(X1)[sY][sY]-OH), the Activity in the assay on C8166 [8] worked out at 215; in the assay with C8166 [1], 52; in the assay on C8166 [2] it was 193; in the assay on C8166 [4], 0. For the same molecule, the 50% inhibitory concentration (IC50) turned out to be 55 µM in assay [5] (Homo sapiens, CCR5); 15 µM in assay [6] (Homo sapiens); 65 µM in assay [7] (Homo sapiens); 25 µM in assay [3] (Homo sapiens).
